# Where two headings read alike, the source gives them in different places.
# How the values were obtained:
# S. aureus [1] = assay: MIC, antimicrobial activity assay; format: cell-based, Staphylococcus aureus (ATCC 6538P); details: Staphylococcus aureus
# B. subtilis [2] = assay: MIC, antimicrobial activity assay; format: cell-based, Bacillus subtilis (ATCC 6633); details: Bacillus subtilis
# P. aeruginosa = assay: MIC, antimicrobial activity assay; format: cell-based, Pseudomonas aeruginosa (ATCC 9027); details: Pseudomonas aeruginosa
# B. cereus = assay: MIC, antimicrobial activity assay; format: cell-based; details: Bacillus cereus; Table 4, Gram-positive
# C. difficile = assay: MIC, antimicrobial activity assay; format: cell-based, Clostridium difficile (DSM 1296); details: Clostridioides difficile; Table 4, Gram-positive; anaerobic
# [3] = system: E. faecalis (Vancomycin-resistant); assay: MIC, antimicrobial activity assay; format: cell-based, vancomycin-resistant Enterococcus faecalis (DSMZ 13591); details: Enterococcus faecalis, read-out: MIC E. faecalis (Vancomycin-resistant)
# S. pyogenes = assay: MIC, antimicrobial activity assay; format: cell-based, Streptococcus pyogenes (DSM 20565); details: Streptococcus pyogenes; Table 4, Gram-positive; anaerobic
# C. farmer = assay: MIC, antimicrobial activity assay; format: cell-based, Citrobacter farmeri (ATCC 51633); details: Citrobacter farmeri; Table 4, Gram-negative
# H. pylori = assay: MIC, antimicrobial activity assay; format: cell-based, Helicobacter pylori (ATCC 43504); details: Helicobacter pylori; Table 4, Gram-negative; microaerobic
# S. enterica = assay: MIC, antimicrobial activity assay; format: cell-based, Salmonella enterica (CIP 80.39); details: Salmonella enterica; Table 4, Gram-negative
# S. flexneri = assay: MIC, antimicrobial activity assay; format: cell-based, Shigella flexneri (ATCC 12022); details: Shigella flexneri; Table 4, Gram-negative
# [4] = system: Caco2 (human intestinal epithelial cells); assay: Cytotoxic assay on human cells (resazurin); format: cell-based; details: for IC50: Homo sapiens, Caco-2, 48 h, read-out: Inhibitory Concentration 50 (IC50) on cell viability, Caco2; for therapeutic index Caco2: IC50 on Caco2 divided by MIC on S. aureus
# S. aureus [5] = assay: Bacterial membrane permeabilization assay (propidium iodide); format: cell-based, Staphylococcus aureus; details: for membrane permeabilization at 4-times MIC, S. aureus: 4-times their MIC; for maximal membrane permeabilization, S. aureus: 120 min exposure to 100 µM, CTAB 300 µM = 100%
# Method: (§1) Membrane permeabilization by berberine derivatives was evaluated using the cell-impermeable DNA/RNA probe propidium iodide as previously explained. Logarithmic growing bacterial suspensions were prepared from overnight bacterial suspension by 1 in 10 dilution. After 3 h incubation at 37 °C, 200 rpm, bacterial suspensions were centrifuged for 5 min at 3000 rpm. Cell pellets were then resuspended in sterile PBS at about 10^9 cells/mL. Propidium iodide (Sigma Aldrich) was then added to the suspension at a final concentration of 60 µM. 100 µL of this suspension were then transferred into 96-well black plates (Dominique Dutscher) and exposed to increasing concentrations of berberine’s derivative (from 0 to 100 µM, 1:2 dilution). […] All steps of the assay were performed in aerobic condition except for H. pylori which was done in microaerobic condition generated with GasPak unit (Sigma Aldrich). Bacteria were incubated at 37 °C and the kinetics of fluorescence variations (excitation at 530 nm and emission at 590 nm) were then recorded over time using a Synergy Mx microplate reader (Biotek). Cetyl trimethylammonium bromide (CTAB) at 300 µM was used as positive control giving 100% permeabilization. Results were expressed in % of permeabilization. All experiments were done in triplicate.
# B. subtilis [6] = assay: as above; format: cell-based, Bacillus subtilis; details: for membrane permeabilization at 4-times MIC, B. subtilis: 4-times their MIC; for maximal membrane permeabilization, B. subtilis: 120 min exposure to 100 µM, CTAB 300 µM = 100%
# Method: as §1
# [7] = system: bacterial DNA extracted from B. subtilis; assay: DNA fragmentation assay; details: 6 h at 37 °C, 4-times their MIC
# [8] = system: DNA extracted from H. pylori; assay: DNA fragmentation assay; details: data not shown
# V. alginolyticus = assay: Macromolecule synthesis inhibition assay by fluorescent microscopy (morphological changes); details: 4 × MIC, 2 h, 37 °C; for Observed Morphology: DNA, V. alginolyticus: DAPI; for Observed Morphology: cell membrane, V. alginolyticus: FM4-64FX; for Known/Possible Target, V. alginolyticus: inferred from morphology
# [9] = Table 1 first screening, read-out: Minimal Inhibitory Concentration (MIC) S. aureus
# [10] = Table 4, Gram-positive, read-out: MIC S. aureus
# [11] = Table 1 first screening, read-out: Minimal Inhibitory Concentration (MIC) B. subtilis
# [12] = Table 4, Gram-positive, read-out: MIC B. subtilis
# [13] = Table 1 first screening, read-out: Minimal Inhibitory Concentration (MIC) P. aeruginosa
# [14] = Table 4, Gram-negative, read-out: MIC P. aeruginosa
SMILES,MIC (S. aureus [1]; [9]) [µM],MIC (S. aureus [1]; [10]) [µM],MIC (B. subtilis [2]; [11]) [µM],MIC (B. subtilis [2]; [12]) [µM],MIC (P. aeruginosa; [13]) [µM],MIC (P. aeruginosa; [14]) [µM],MIC (B. cereus) [µM],MIC (C. difficile) [µM],MIC [3] [µM],MIC (S. pyogenes) [µM],MIC (C. farmer) [µM],MIC (H. pylori) [µM],MIC (S. enterica) [µM],MIC (S. flexneri) [µM],IC50 [4] [µM],therapeutic index Caco2 [4],"membrane permeabilization at 4-times MIC, S. aureus (S. aureus [5])","maximal membrane permeabilization, S. aureus (S. aureus [5])","membrane permeabilization at 4-times MIC, B. subtilis (B. subtilis [6])","maximal membrane permeabilization, B. subtilis (B. subtilis [6])",also measured
"COc1cc(C(=O)Cc2c3[n+](cc4c(OC)c(OC)ccc24)CCc2cc4c(cc2-3)OCO4)cc(OC)c1OC(=O)c1ccccc1 [Compound 16, 4-[2-(Berberin-13-yl)acetyl]-2,6-dimethoxyphenyl Benzoate]",6.25 to 12.5,6.25,25,25,> 100,> 100,12.5,100,50,6.25,> 100,6.25,> 100,> 100,> 50,10.36,low to no membrane permeabilization,80–100%,low to no membrane permeabilization,10–15%,"DNA fragmentation, B. subtilis DNA [7]: did not caused DNA fragmentation; DNA fragmentation, H. pylori DNA [8]: failed at causing the fragmentation of DNA; Observed Morphology: cell elongation, V. alginolyticus (V. alginolyticus): 2–4 times compared to control; Observed Morphology: cells connected, V. alginolyticus (V. alginolyticus): 2–4 cells connected; Observed Morphology: DNA, V. alginolyticus (V. alginolyticus): Decondensed DNA spanning cell; Observed Morphology: cell membrane, V. alginolyticus (V. alginolyticus): Cell membrane thickening; Known/Possible Target, V. alginolyticus (V. alginolyticus): Cell wall biosynthesis"
"COc1ccc(C(=O)/C=C/c2ccc(Cc3c4[n+](cc5c(OC)c(OC)ccc35)CCc3cc5c(cc3-4)OCO5)cc2)c(O)c1 [Compound 25, (2E)-3-{4-[(Berberin-13-yl)methyl]phenyl}-1-(2-hydroxy-4-methoxyphenyl)prop-2-en-1-one]",3.12,3.12,6.25,6.25,> 100,> 100,6.25,12.5,12.5,6.25,> 100,3.12,> 100,> 100,10.5 ± 0.7,3.37,low to no membrane permeabilization,80–100%,low to no membrane permeabilization,10–15%,"DNA fragmentation, B. subtilis DNA [7]: did not caused DNA fragmentation; DNA fragmentation, H. pylori DNA [8]: failed at causing the fragmentation of DNA; Observed Morphology: cell elongation, V. alginolyticus (V. alginolyticus): 2–7 times compared to control; Observed Morphology: cells connected, V. alginolyticus (V. alginolyticus): 1–2 cells connected; Observed Morphology: DNA, V. alginolyticus (V. alginolyticus): Condensed DNA spanning the cell; Observed Morphology: cell membrane, V. alginolyticus (V. alginolyticus): Cell membrane pigmentation; Known/Possible Target, V. alginolyticus (V. alginolyticus): RNA biosynthesis"
